Test results published in ChEMBL document CHEMBL3132842, “Synthesis of metergoline analogues and their evaluation as antiplasmodial agents” (Medchemcomm, 2014).

Key:
[1] = Selectivity index, ratio of IC50 for CHO cells to IC50 for chloroquine-sensitive Plasmodium falciparum NF54; assay type: toxicity, cell-based; conditions: hamster, read-out: Ratio IC50
CHO = assay: Cytotoxicity against CHO cells by MTT assay; assay type: cell-based; conditions: Cricetulus griseus
Plasmodium falciparum [2] = assay: Antiplasmodial activity against chloroquine-sensitive Plasmodium falciparum NF54 assessed as reduction in parasite growth by parasite lactate dehydrogenase assay; assay type: functional, organism-based
Plasmodium falciparum [3] = assay: Antiplasmodial activity against Plasmodium falciparum after 48 hrs by NIH quantitative high throughput screen assay; assay type: functional, organism-based

SMILES | selectivity ratio [1] | IC50 (CHO) | IC50 (Plasmodium falciparum [2]) | IC50 (Plasmodium falciparum [3])
CC(=O)c1ccc(C(=O)NC[C@@H]2C[C@@H]3c4cccc5c4c(cn5C)C[C@H]3N(C)C2)cc1 | 12 | 152 µM | 12.3 µM | –
CN1C[C@H](CNC(=O)C2CCCCN2)C[C@@H]2c3cccc4c3c(cn4C)C[C@H]21 (stereo not given in full) | 13 | 16.6 µM | 1.23 µM | –
CN1C[C@H](CNC(=O)c2cccnc2)C[C@@H]2c3cccc4c3c(cn4C)C[C@H]21 | 9 | 162 µM | 17.4 µM | –
CN1C[C@H](CNC(=O)c2ccncc2)C[C@@H]2c3cccc4c3c(cn4C)C[C@H]21 | 9 | 161 µM | 17.5 µM | –
CN1C[C@H](CNC(=O)c2ccccn2)C[C@@H]2c3cccc4c3c(cn4C)C[C@H]21 | 10 | 112 µM | 11.4 µM | –
CN1C[C@H](CNC(=O)c2cnccn2)C[C@@H]2c3cccc4c3c(cn4C)C[C@H]21 | 20 | 164 µM | 8.4 µM | –
CN1C[C@H](CNC(=O)c2ccncn2)C[C@@H]2c3cccc4c3c(cn4C)C[C@H]21 | – | – | 27.4 µM | –
CC(=O)NC[C@@H]1C[C@@H]2c3cccc4c3c(cn4C)C[C@H]2N(C)C1 | – | – | 199 µM | –
CCC(=O)NC[C@@H]1C[C@@H]2c3cccc4c3c(cn4C)C[C@H]2N(C)C1 | – | – | 40.3 µM | –
CCCC(=O)NC[C@@H]1C[C@@H]2c3cccc4c3c(cn4C)C[C@H]2N(C)C1 | – | – | 32.1 µM | –
CCCCC(=O)NC[C@@H]1C[C@@H]2c3cccc4c3c(cn4C)C[C@H]2N(C)C1 | 6 | 105 µM | 18.7 µM | –
CN1C[C@H](CNC(=O)C(C)(C)C)C[C@@H]2c3cccc4c3c(cn4C)C[C@H]21 | – | – | 89.1 µM | –
CCCCCC(=O)NC[C@@H]1C[C@@H]2c3cccc4c3c(cn4C)C[C@H]2N(C)C1 | – | – | 28.6 µM | –
CCCCCCC(=O)NC[C@@H]1C[C@@H]2c3cccc4c3c(cn4C)C[C@H]2N(C)C1 | 1 | 8.9 µM | 9.1 µM | –
CCCCCCCC(=O)NC[C@@H]1C[C@@H]2c3cccc4c3c(cn4C)C[C@H]2N(C)C1 | 1 | 4.6 µM | 3.9 µM | –
CCCCCCCCCC(=O)NC[C@@H]1C[C@@H]2c3cccc4c3c(cn4C)C[C@H]2N(C)C1 | 17 | 86.6 µM | 5.2 µM | –
CN1C[C@H](CNC(=O)C2CCCC2)C[C@@H]2c3cccc4c3c(cn4C)C[C@H]21 | 33 | 144 µM | 4.3 µM | –
CN1C[C@H](CNC(=O)c2ccc(OC(F)(F)F)cc2)C[C@@H]2c3cccc4c3c(cn4C)C[C@H]21 | 3 | 12.8 µM | 4.2 µM | –
CN1C[C@H](CNC(=O)c2ccc([N+](=O)[O-])cc2)C[C@@H]2c3cccc4c3c(cn4C)C[C@H]21 | 11 | 5 µM | 0.5 µM | –
CN1C[C@H](CNC(=O)c2ccc(Cl)cc2)C[C@@H]2c3cccc4c3c(cn4C)C[C@H]21 | 3 | 4.3 µM | 1.3 µM | –

SMILES | selectivity ratio [1] | IC50 (CHO) | IC50 (Plasmodium falciparum [2]) | IC50 (Plasmodium falciparum [3])
CN1C[C@H](CNC(=O)c2ccccc2Cl)C[C@@H]2c3cccc4c3c(cn4C)C[C@H]21 | 2 | 25 µM | 14.6 µM | –
CN1C[C@H](CNC(=O)c2cccc(Cl)c2)C[C@@H]2c3cccc4c3c(cn4C)C[C@H]21 | 1 | 4.7 µM | 4.9 µM | –
CN1C[C@H](CNC(=O)c2ccc(Cl)c(Cl)c2)C[C@@H]2c3cccc4c3c(cn4C)C[C@H]21 | 1 | 3.8 µM | 4.8 µM | –
CN1C[C@H](CNC(=O)c2ccc(Cl)cc2Cl)C[C@@H]2c3cccc4c3c(cn4C)C[C@H]21 | 1 | 7.5 µM | 8.3 µM | –
CN1C[C@H](CNC(=O)c2ccc(C#N)cc2)C[C@@H]2c3cccc4c3c(cn4C)C[C@H]21 | 188 | 104 µM | 0.6 µM | –
CN1C[C@H](CNC(=O)c2ccc(S(C)(=O)=O)cc2)C[C@@H]2c3cccc4c3c(cn4C)C[C@H]21 | 16 | 222 µM | 14.2 µM | –
COc1ccc(C(=O)NC[C@@H]2C[C@@H]3c4cccc5c4c(cn5C)C[C@H]3N(C)C2)cc1 | 1 | 7.4 µM | 8.4 µM | –
CSc1ccc(C(=O)NC[C@@H]2C[C@@H]3c4cccc5c4c(cn5C)C[C@H]3N(C)C2)cc1 | 1 | 6 µM | 4.7 µM | –
CCc1ccc(C(=O)NC[C@@H]2C[C@@H]3c4cccc5c4c(cn5C)C[C@H]3N(C)C2)cc1 | 1 | 5.6 µM | 4.3 µM | –
CCCCc1ccc(C(=O)NC[C@@H]2C[C@@H]3c4cccc5c4c(cn5C)C[C@H]3N(C)C2)cc1 | 7 | 14.5 µM | 2 µM | –
CN(C)c1ccc(C(=O)NC[C@@H]2C[C@@H]3c4cccc5c4c(cn5C)C[C@H]3N(C)C2)cc1 | 4 | 132 µM | 33.8 µM | –
CN1C[C@H](CN)C[C@@H]2c3cccc4c3c(cn4C)C[C@H]21 | 7 | 26.1 µM | 3.6 µM | –
CN1C[C@H](CNC(=O)c2ccccc2)C[C@@H]2c3cccc4c3c(cn4C)C[C@H]21 | 1 | 27 µM | 24.4 µM | –
CN1C[C@H](CNC(=O)c2ccc(F)cc2)C[C@@H]2c3cccc4c3c(cn4C)C[C@H]21 | 0.6 | 7.3 µM | 12.5 µM | –
CN1C[C@H](CNC(=O)c2ccc(Br)cc2)C[C@@H]2c3cccc4c3c(cn4C)C[C@H]21 | 2 | 5.1 µM | 2.6 µM | –
CN1C[C@H](CNC(=O)c2ccc(I)cc2)C[C@@H]2c3cccc4c3c(cn4C)C[C@H]21 | 2 | 5.5 µM | 3 µM | –
CN1C[C@H](CNC(=O)c2ccc(C(F)(F)F)cc2)C[C@@H]2c3cccc4c3c(cn4C)C[C@H]21 | 2 | 4.9 µM | 2.7 µM | –
C[C@H]1[C@H](OC(=O)CCC(=O)O)O[C@@H]2O[C@@]3(C)CC[C@H]4[C@H](C)CC[C@@H]1[C@@]24OO3 [ARTESUNATE] | – | – | 2.8 ng/mL | –
CC[C@H]1CN2CCc3cc(OC)c(OC)cc3[C@@H]2C[C@@H]1C[C@H]1NCCc2cc(OC)c(OC)cc21 [EMETINE] | – | 0.05 µM | – | –
CN1C[C@H](CNC(=O)OCc2ccccc2)C[C@@H]2c3cccc4c3c(cn4C)C[C@H]21 [METERGOLINE] | 4.5 | 16.6 µM | 3.7 µM | 7.4 µM
